Legend:
[1] = target: T1, human TRPM8 (Homo sapiens, UniProt Q7Z2W7); experiment: TRPM8 calcium assay (Fluo-8, FLIPR) in transfected CHO cells; format: cell-based; settings: x Menthol
T1 construct: host or cells: CHO cells, stably transfected
Description: Compounds were tested on Chinese Hamster Ovary (CHO) cells stably transfected with human TRPM8 cDNAs using a Fluo-8 calcium kit and a Fluorescence Imaging Plate Reader ([…]™) instrument. […] Solutions were prepared by diluting stock solutions in a HEPES-buffered physiological saline (HBPS) solution. Test compound and control formulations were loaded in polypropylene or glass-lined 384-well plates, and placed into the FLIPR instrument (Molecular Devices Corporation, Union City, CA, USA). Each was tested at 8 concentrations with n = 4 replicates per determination. […] For […]™ assay, cells were plated in 384-well black wall, flat clear-bottom microtiter plates (Type: BD Biocoat Poly-D-Lysine Multiwell Cell Culture Plate) at approximately 30,000 cells per well. Cells were incubated at 37 °C overnight to reach a near confluent monolayer appropriate for use in a fluorescence assay. The test procedure was to remove the growth media and to add 40 μL of HBPS containing Fluo-8 for 30 min at 37 °C. 10 μL of test compound, vehicle, or control solutions in HBPS were added to each well and read for 4 min. Concentration-response data were analyzed via the FLIPR Control software that is supplied with the FLIPR System (MDS-AT) and fitted to a Hill equation.

[2] = tested on: hNav1.7 (sodium channels); design: method as in ref 63 = [63]; 63. Wei ET. Design of Topical Sensory/cooling TRPM8 agonists for cough. Abstracts of the First International Cough Conference, Guangzhou, China, November 10–11, 2013.; settings: 5 μM; cited from earlier work
[3] = tested on: cornea; design: method as in ref 62 = [62]; 62. Sung MS, Lee HS, Yang JM, Kim JG, Wei ET, Kim SJ, Yoon KC. paper presented at the 111th Annual Meeting of the Korean Ophthalmological Society, Busan, South Korea. 2014.; settings: 2 mg/mL solution sprayed onto the closed eyelid; cited from earlier work
[4] = tested on: eye; settings: cited from earlier work
[5] = design: method as in ref 28 = [28]; 28. Wei ET. Topical agents for the treatment of sensory discomfort in the nasal membranes. US20150265752 A1, Sept. 24, 2015.; settings: cited from earlier work
[6] = target: T2, mouse TRPV1 (Mus musculus, UniProt Q704Y3); experiment: TRPV1 calcium imaging (Fura-2) in transfected KNRK cells; format: cell-based; settings: 10 μM
T2 construct: expressed in transfected cells; host or cells: KNRK cells (rat kidney), transiently transfected
Description: (§1) To further examine the specificity of C3, tests were conducted on TRPV1 channels and TRPA1 channels expressed in Kirsten murine sarcoma virus transformed rat kidney (KNRK) cells. KNRK cells were cultured as a monolayer and maintained in Dulbeccos’s Modified Eagles’s Medium (Life Technologies), supplemented with 10% fetal bovine serum (Life Technologies), 100 units/mL penicillin and 100 μg/mL streptomycin, in an incubator of 5% CO2 at 37 °C. After suspension, the cells were coated on cover slips for 12 h, then transiently transfected with cDNA (pc3.1 DNA) for TRPV1 or TRPA1 with Lipofectamine 2000 (Invitrogen) for 24 h, and loaded with Fura-2 AM™ (Molecular Probes) for 40 min at 37 °C. After washing and recovery, KNRK cells were imaged at 340 and 380 nm excitation to detect free calcium influx. An increase of 50% of the 340/380 ratio was considered as the response threshold which were measured under masked conditions for plasmids. Compounds were applied to the bath and calcium response was acquired by an inverted Nikon fluorescence microscope with a CoolSnap HQ2 CCD camera (Photometrics, Tucson, AZ). Data were quantified offline with the Nikon-NIS program.

[7] = tested on: TRPM8-sensory neurons; experiment: Calcium imaging of primary sensory neurons from Trpm8 EGFP mice; format: cell-based, mouse; settings: menthol 100 μM
Description: Calcium imaging was used to test the C3 selectivity on TRPM8-sensory neurons. Trpm8 ^+/EGFPmice were gifted by Dr. Yu-Qing Cao, Pain Center of Washington University in Saint Louis, School of Medicine, Missouri. Trigeminal ganglions and dorsal root ganglions from 4 to 5 weeks old mice were collected after CO2 euthanasia and digested for 30–40 min before plated on cover slips (8 mm), which were coated with poly-D-lysine for 40 min before use. Cover slips were gently washed with culture media to remove myelin after incubating for 35–40 min. Calcium imaging was done after incubation overnight at 37 °C, 5% CO2. Neurons were loaded with Fura-2 AM™ (Molecular Probes) for 30 min at room temperature. After washing and recovery, neurons were imaged at 340 and 380 nm excitation to detect free calcium influx. An increase of 50% of the 340/380 ratio was considered as the response threshold which were measured under blinded conditions for genotypes. Compounds were applied to the bath and calcium response was acquired by an inverted Nikon fluorescence microscope with a CoolSnap HQ2 CCD camera (Photometrics, Tucson, AZ). Data was quantified offline with the Nikon-NIS program.

[8] = target: T3, human TRPA1 (Homo sapiens, UniProt O75762); experiment: TRPA1 calcium imaging (Fura-2) in transfected KNRK cells; format: cell-based; settings: positive control, 100 μM
T3 construct: expressed in transfected cells; host or cells: KNRK cells (rat kidney), transiently transfected
Description: as §1

T1 sequence (Q7Z2W7 whole entry): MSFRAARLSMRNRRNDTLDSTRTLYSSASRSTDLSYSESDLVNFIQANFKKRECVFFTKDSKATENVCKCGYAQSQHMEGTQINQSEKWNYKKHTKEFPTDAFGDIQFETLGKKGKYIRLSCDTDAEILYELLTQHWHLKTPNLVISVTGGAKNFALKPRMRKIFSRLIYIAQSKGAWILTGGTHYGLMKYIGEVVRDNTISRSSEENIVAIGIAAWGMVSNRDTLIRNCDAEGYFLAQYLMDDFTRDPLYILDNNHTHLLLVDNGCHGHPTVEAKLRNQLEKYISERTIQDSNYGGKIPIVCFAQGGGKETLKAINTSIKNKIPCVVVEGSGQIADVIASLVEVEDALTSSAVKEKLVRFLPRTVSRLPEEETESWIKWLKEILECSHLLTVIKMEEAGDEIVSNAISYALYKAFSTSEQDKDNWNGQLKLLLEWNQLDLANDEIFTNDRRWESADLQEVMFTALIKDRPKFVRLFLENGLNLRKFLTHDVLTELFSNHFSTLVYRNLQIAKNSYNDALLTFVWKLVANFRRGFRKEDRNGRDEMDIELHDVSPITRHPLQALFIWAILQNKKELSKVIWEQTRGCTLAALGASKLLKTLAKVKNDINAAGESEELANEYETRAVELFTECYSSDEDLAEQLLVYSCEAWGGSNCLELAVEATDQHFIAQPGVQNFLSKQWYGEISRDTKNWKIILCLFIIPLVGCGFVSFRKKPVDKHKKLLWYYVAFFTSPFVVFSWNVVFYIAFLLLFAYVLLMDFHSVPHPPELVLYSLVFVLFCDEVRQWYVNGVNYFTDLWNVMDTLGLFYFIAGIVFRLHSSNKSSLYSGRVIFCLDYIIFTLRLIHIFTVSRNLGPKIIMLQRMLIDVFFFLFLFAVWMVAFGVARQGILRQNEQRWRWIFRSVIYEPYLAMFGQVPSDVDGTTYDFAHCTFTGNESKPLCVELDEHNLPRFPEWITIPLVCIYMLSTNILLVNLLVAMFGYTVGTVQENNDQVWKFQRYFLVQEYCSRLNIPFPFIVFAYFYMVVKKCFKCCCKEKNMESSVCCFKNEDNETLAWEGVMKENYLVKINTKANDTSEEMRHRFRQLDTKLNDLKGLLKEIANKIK
T2 sequence (Q704Y3 whole entry): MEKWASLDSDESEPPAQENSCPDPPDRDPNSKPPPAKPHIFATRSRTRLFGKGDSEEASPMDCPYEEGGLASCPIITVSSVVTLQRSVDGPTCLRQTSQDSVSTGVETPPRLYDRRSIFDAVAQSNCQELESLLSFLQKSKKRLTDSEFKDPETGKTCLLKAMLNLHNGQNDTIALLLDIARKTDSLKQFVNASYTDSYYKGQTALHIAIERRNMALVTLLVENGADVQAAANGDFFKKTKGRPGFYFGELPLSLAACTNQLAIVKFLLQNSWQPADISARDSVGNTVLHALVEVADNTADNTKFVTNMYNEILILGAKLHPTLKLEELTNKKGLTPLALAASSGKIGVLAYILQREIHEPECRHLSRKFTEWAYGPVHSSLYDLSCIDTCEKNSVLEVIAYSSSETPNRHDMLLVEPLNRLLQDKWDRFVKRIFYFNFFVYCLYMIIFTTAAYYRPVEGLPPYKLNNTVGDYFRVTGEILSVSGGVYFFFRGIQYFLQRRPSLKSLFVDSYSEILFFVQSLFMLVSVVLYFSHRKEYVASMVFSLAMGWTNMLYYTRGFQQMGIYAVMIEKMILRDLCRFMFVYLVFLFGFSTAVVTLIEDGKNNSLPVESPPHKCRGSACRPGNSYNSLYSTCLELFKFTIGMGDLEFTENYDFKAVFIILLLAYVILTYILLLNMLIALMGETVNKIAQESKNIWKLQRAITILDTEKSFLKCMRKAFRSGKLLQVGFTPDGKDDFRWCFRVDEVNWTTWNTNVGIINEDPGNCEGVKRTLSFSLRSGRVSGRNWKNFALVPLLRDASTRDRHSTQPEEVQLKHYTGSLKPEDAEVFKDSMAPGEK
T3 sequence (O75762 whole entry): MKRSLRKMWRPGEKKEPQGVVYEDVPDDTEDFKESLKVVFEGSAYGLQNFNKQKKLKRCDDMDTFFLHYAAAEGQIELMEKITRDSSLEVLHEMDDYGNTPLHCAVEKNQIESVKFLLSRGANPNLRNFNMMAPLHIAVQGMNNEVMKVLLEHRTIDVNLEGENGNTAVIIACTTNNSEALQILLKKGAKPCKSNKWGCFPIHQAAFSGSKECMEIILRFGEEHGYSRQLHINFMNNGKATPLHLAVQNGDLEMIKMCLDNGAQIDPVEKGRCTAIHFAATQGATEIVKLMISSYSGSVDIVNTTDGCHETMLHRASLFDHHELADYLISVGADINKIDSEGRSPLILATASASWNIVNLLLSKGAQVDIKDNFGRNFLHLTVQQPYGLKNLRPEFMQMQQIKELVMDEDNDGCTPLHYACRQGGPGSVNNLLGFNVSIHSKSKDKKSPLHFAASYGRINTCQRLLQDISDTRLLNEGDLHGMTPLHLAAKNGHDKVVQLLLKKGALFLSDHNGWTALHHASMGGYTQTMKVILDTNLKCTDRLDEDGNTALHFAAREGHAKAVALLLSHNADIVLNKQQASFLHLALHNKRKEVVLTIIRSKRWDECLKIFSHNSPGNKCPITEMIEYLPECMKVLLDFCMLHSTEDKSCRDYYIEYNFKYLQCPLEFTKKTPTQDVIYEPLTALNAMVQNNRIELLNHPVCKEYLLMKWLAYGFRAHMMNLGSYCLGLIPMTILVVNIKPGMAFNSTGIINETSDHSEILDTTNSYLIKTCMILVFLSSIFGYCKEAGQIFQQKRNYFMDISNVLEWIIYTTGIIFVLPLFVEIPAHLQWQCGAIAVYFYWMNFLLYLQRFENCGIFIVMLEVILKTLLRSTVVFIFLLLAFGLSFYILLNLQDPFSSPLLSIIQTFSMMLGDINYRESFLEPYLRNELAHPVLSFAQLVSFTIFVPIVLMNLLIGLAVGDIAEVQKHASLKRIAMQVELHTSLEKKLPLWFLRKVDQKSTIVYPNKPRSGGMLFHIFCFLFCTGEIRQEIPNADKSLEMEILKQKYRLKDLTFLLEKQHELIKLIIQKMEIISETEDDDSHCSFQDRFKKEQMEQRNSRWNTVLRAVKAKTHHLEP

Row | SMILES | relative potency to l-menthol (menthol = 1) [1] | further results
1 | CCC(C)P(=O)(CCC(C)C)C(C)CC (stereo not shown) [1-di-sec-butylphosphoryl-3-methyl-butane] | 0.9 | –
2 | CCCCP(=O)(C(C)CC)C(C)CC (stereo not shown) [1-di-sec-butylphosphoryl-4] | 0.3 | –
3 | CCCCCCCP(=O)(C(C)CC)C(C)CC (stereo not shown) [1-di-sec-butylphosphoryl-heptane] | 3.4 | –
4 | CCCCCCP(=O)(C(C)CC)C(C)CC (stereo not shown) [1-di-sec-butylphosphoryl-hexane] | 4.7 | –
5 | CCCCCCCCP(=O)(C(C)CC)C(C)CC (stereo not shown) [1-di-sec-butylphosphoryl-octane] | 2.9 | –
6 | CCCCCP(=O)(C(C)CC)C(C)CC (stereo not shown) [1-di-sec-butylphosphoryl-pentane] | 2.2 | lidocaine-like activity on hNav1.7 [2]: did not have lidocaine-like activity; corneal sensitivity [3]: not affected
7 | CCCCCP(=O)(CC(C)C)CC(C)C [1-diisobutylphosphoryl-pentane] | 0.2 | –
8 | CCCCCCCP(=O)(C(C)C)C(C)C [1-diisopropylphosphoryl-heptane] | 5.4 | –
9 | CCCCCCP(=O)(C(C)C)C(C)C [1-diisopropylphosphoryl-hexane] | 1.6 | –
10 | CCCCCCCCP(=O)(C(C)C)C(C)C [1-diisopropylphosphoryl-octane] | 5.4 | –
11 | CCCCCP(=O)(C(C)C)C(C)C [1-diisopropylphosphoryl-pentane] | 0.7 | –
12 | O=C1NC(c2cccc([N+](=O)[O-])c2)=CCN1c1ccccc1O [Icilin, icilin] | – | sensation on the eyelids ([4]; anecdotal): punctate and long-lasting cooling; solubility in ophthalmic vehicles [5]: not soluble
13 | COc1cc(CNC(=O)CCCC/C=C/C(C)C)ccc1O [capsaicin, reference compound] | – | activation of TRPV1 (calcium response) [6]: active
14 | CC(C)[C@@H]1CC[C@@H](C)C[C@H]1O [l-menthol, reference compound] | – | eye sensation after menthol solutions [4]: stinging followed by a brief episode of cooling; calcium response of Trpm8 EGFPf/+ neurons [7]: sensitive
15 | C=CCN=C=S [mustard oil, reference compound] | – | activation of TRPA1 (calcium response) [8]: active
